Data reported in US12258327B2, “5-membered heteroaryl-containing aminopyridine compounds as EGFR inhibitors” (YUHAN CORPORATION, priority 2021, dated 2025).
Where two headings read alike, the source gives them in different places.

Columns and labels:
[1] = biological target: EGFR del19/T790M/C797S (Homo sapiens, UniProt P00533, C797S/DEL746-750/T790M); test: Biochemical EGFR kinase assay (Lance Ultra TR-FRET), triple mutant del19/T790M/C797S
Method in brief: (§1)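 Kinase activity is measured by TR-FRET phosphopeptide detection. Compounds span 0.003 μM to 10 μM; the 1 h reaction at room temperature is quenched with EDTA, then labelled antibody (2 nM) is incubated 60 min before reading.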

[2] = biological target: EGFR L858R/T790M/C797S (Homo sapiens, UniProt P00533, C797S/L858R/T790M); test: Biochemical EGFR kinase assay (Lance Ultra TR-FRET), triple mutant L858R/T790M/C797S
Method in brief: as §1

[3] = biological target: EGFR del19/C797S (Homo sapiens, UniProt P00533, C797S/DEL746-750); test: Biochemical EGFR kinase assay (Lance Ultra TR-FRET), double mutant del19/C797S
Method in brief: as §1

[4] = biological target: EGFR L858R/C797S (Homo sapiens, UniProt P00533, C797S/L858R); test: Biochemical EGFR kinase assay (Lance Ultra TR-FRET), double mutant L858R/C797S
Method in brief: as §1

[5] = biological target: EGFR wildtype (WT) (Homo sapiens, UniProt P00533); test: Biochemical EGFR kinase assay (Lance Ultra TR-FRET), wildtype
Method in brief: as §1

[6] = IC50 del19/T790M/C797S (nM) 100 μM ATP, 100 μM ATP
[7] = IC50 L858R/T790M/C797S (nM) 100 μM ATP, 100 μM ATP
[8] = IC50 del19/C797S (nM) 100 μM ATP, 100 μM ATP
[9] = IC50 L858R/C797S (nM) 100 μM ATP, 100 μM ATP
[10] = IC50 WT (nM) 100 μM ATP, 100 μM ATP
[11] = Km ATP, read-out: IC50 del19/T790M/C797S, Km ATP
[12] = Km ATP, read-out: IC50 L858R/T790M/C797S, Km ATP
[13] = Km ATP, read-out: IC50 del19/C797S, Km ATP
[14] = Km ATP, read-out: IC50 L858R/C797S, Km ATP
[15] = Km ATP, read-out: IC50 WT, Km ATP
[16] = Km ATP, read-out: IC50 del19/T790M/C797S (nM) Km ATP
[17] = Km ATP, read-out: IC50 L858R/T790M/C797S (nM) Km ATP
[18] = Km ATP, read-out: IC50 del19/C797S (nM) Km ATP
[19] = Km ATP, read-out: IC50 L858R/C797S (nM) Km ATP
[20] = Km ATP, read-out: IC50 WT (nM) Km ATP

EGFR del19/T790M/C797S, sequence (P00533 with tags, fused parts or gaps DEL746-750/T790M/C797S): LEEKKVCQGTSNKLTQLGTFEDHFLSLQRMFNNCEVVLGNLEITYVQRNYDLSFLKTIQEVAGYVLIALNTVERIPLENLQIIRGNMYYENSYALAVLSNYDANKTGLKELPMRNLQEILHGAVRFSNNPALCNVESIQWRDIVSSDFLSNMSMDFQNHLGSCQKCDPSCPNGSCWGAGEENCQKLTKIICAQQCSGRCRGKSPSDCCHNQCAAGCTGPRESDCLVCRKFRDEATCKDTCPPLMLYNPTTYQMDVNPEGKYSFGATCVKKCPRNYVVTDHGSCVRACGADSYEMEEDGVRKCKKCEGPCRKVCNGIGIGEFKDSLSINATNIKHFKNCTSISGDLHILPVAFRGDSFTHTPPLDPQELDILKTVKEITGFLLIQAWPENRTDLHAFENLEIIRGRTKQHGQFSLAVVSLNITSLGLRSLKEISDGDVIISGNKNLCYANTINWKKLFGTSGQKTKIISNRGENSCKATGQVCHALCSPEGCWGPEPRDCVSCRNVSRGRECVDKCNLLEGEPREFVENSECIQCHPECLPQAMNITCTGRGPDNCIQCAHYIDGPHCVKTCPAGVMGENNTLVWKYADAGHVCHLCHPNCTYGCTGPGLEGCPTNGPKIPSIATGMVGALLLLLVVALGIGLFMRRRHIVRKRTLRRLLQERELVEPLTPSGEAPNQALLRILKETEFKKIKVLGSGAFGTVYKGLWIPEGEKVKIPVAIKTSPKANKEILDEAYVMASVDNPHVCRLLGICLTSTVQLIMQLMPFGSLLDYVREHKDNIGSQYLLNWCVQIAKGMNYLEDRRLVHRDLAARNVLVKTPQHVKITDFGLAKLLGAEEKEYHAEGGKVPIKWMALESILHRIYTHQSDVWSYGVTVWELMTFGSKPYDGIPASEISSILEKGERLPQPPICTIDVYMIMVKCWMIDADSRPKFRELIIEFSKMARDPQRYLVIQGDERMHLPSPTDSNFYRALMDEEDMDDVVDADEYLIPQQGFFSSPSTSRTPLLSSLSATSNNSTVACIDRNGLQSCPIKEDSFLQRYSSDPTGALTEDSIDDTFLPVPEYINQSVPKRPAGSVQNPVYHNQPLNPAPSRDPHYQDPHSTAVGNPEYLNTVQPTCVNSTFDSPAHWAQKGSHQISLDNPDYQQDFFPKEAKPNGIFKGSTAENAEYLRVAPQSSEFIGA
EGFR wildtype (WT), sequence (P00533 25-1210): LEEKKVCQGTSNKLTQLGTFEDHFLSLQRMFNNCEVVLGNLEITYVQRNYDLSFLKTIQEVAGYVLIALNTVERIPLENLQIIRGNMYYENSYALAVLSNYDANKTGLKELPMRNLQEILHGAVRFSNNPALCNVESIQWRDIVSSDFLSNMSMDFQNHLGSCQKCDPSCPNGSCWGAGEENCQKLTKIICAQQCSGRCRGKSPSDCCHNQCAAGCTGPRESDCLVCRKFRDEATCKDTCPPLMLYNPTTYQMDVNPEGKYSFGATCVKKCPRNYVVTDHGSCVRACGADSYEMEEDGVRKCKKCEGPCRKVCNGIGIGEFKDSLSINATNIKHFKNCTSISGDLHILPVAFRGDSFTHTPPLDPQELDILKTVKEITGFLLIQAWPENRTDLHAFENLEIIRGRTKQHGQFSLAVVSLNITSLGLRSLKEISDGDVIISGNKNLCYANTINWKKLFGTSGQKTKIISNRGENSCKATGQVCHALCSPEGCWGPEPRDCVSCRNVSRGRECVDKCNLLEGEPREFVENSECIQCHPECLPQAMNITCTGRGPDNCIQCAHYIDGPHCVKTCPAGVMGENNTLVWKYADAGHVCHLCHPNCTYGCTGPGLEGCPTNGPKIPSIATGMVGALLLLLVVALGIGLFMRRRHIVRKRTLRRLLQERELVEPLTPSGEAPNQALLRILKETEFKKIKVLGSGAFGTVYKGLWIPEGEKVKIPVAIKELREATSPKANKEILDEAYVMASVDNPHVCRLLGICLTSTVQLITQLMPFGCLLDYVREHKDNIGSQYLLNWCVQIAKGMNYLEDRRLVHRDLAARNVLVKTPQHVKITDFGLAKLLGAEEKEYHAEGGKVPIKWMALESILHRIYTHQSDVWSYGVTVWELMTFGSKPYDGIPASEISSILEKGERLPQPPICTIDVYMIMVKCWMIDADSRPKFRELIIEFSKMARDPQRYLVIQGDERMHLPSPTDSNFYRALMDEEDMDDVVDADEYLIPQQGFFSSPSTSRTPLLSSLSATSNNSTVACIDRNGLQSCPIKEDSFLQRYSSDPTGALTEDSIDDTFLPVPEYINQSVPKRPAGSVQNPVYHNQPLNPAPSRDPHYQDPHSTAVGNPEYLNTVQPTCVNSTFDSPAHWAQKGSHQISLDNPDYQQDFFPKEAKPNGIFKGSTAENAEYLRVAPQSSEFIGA
EGFR del19/C797S, sequence (P00533 with tags, fused parts or gaps DEL746-750/C797S): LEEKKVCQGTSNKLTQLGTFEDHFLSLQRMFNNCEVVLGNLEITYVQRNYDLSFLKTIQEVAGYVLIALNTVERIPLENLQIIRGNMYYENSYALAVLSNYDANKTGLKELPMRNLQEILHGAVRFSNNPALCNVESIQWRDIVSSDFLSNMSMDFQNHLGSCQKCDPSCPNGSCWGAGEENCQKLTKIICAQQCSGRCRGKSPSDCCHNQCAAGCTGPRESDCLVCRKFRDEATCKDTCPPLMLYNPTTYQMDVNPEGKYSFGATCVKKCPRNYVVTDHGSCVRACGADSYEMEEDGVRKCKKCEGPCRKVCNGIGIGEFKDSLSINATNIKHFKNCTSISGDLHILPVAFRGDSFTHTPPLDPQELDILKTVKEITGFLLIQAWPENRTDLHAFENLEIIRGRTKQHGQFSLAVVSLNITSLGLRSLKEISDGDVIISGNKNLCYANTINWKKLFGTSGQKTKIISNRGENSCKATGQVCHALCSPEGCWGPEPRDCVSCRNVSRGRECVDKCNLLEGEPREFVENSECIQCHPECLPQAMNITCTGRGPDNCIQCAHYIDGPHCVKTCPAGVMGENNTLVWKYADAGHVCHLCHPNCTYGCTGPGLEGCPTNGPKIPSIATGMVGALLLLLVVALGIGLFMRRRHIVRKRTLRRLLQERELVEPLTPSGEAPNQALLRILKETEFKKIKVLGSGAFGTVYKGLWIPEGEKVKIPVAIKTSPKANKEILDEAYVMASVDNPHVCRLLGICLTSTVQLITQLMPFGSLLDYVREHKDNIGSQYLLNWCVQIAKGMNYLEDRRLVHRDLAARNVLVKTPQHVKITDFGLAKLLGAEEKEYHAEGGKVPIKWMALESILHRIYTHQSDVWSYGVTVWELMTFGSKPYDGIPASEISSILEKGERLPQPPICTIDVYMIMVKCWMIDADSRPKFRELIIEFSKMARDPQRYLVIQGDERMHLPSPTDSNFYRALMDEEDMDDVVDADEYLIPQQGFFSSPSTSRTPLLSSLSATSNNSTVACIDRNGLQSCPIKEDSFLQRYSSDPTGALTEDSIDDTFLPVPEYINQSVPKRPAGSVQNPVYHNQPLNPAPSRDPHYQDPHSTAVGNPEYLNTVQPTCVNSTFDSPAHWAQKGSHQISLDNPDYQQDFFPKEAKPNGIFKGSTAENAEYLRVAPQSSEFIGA
EGFR L858R/C797S, sequence (P00533 25-1210 C797S/L858R): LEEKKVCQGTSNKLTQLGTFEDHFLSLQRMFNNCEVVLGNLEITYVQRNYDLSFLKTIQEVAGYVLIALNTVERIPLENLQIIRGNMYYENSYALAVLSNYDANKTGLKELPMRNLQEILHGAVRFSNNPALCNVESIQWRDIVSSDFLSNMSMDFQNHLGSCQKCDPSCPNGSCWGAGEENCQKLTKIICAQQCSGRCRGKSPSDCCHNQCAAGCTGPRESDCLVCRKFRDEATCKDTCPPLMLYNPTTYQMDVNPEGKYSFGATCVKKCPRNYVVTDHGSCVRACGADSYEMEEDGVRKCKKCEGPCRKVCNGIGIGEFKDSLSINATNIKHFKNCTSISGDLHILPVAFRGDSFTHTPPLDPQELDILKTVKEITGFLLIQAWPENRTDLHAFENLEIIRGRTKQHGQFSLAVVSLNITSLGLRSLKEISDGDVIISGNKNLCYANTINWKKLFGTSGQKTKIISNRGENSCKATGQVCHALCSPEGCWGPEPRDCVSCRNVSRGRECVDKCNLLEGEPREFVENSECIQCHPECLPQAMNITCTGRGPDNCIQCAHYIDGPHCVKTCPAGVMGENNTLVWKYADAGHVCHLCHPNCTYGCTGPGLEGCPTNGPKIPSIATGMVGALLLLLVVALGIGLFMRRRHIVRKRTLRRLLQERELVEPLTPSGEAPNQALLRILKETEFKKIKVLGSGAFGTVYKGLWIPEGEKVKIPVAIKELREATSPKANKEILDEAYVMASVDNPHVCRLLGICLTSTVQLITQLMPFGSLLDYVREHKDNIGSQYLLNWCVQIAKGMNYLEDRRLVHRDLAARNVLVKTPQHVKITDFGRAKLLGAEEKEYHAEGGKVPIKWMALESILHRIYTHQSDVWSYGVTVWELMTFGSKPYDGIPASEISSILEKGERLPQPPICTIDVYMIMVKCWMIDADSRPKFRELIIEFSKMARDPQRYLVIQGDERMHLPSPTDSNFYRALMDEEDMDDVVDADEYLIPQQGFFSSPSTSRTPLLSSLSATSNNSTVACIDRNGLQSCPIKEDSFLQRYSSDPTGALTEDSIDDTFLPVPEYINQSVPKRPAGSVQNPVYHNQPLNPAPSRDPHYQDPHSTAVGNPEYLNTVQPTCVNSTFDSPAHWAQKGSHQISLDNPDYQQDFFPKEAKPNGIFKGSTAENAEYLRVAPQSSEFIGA

| SMILES | IC50 [1, 6] | IC50 [2, 7] | IC50 [3, 8] | IC50 [4, 9] | IC50 [5, 10] | IC50 [1, 16] | IC50 [2, 17] | IC50 [3, 18] | IC50 [4, 19] | IC50 [5, 20] | also measured |
| --- | --- | --- | --- | --- | --- | --- | --- | --- | --- | --- | --- |
| Cn1ccc(-c2cnc(Nc3ccnc(-c4cnn(S(=O)(=O)C5CC5)c4)n3)cc2NC[C@H]2CC[C@H](NCC(F)F)CC2)n1 [Example 129, N^2-(2-(1-(Cyclopropylsulfonyl)-1H-pyrazol-4-yl)pyrimidin-4-yl)-N^4-(((1r,4r)-4-((2,2-difluoroethyl)amino)cyclohexyl)methyl)-5-(1-methyl-1H-pyrazol-3-yl)pyridine-2,4-diamine] | 0.7 nM | 0.7 nM | 2 nM | 14.3 nM | > 10000 nM | – | – | – | – | – | – |
| Cc1nn(CC(F)(F)F)cc1-c1nccc(Nc2cc(N[C@H]3CC[C@@](C)(O)CC3)c(-c3ccn(C(F)F)n3)nn2)n1 [Example 375, (1s,4s)-4-((3-(1-(Difluoromethyl)-1H-pyrazol-3-yl)-6-((2-(3-methyl-1-(2,2,2-trifluoroethyl)-1H-pyrazol-4-yl)pyrimidin-4-yl)amino)pyridazin-4-yl)amino)-1-methylcyclohexan-1-ol] | – | – | – | – | – | – | – | – | – | – | IC50 [1, 11]: 16.4 nM; IC50 [2, 12]: 11.1 nM; IC50 [3, 13]: 1150 nM; IC50 [4, 14]: 51.4 nM; IC50 [5, 15]: 2290 nM |
| COc1ccc(-c2nccc(Nc3cc(N[C@H]4CC[C@@](C)(O)CC4)c(-c4ccn(C(F)F)n4)cn3)n2)c(F)n1 [Example 166, (1s,4s)-4-((5-(1-(Difluoromethyl)-1H-pyrazol-3-yl)-2-((2-(2-fluoro-6-methoxypyridin-3-yl)pyrimidin-4-yl)amino)pyridin-4-yl)amino)-1-methylcyclohexan-1-ol] | – | – | – | – | – | 7.2 nM | 3.6 nM | 737 nM | 198 nM | 503 nM | – |
| Cn1nc(-c2cnc(Nc3ccnc(-c4cnn(S(=O)(=O)C5CC5)c4)n3)cc2N[C@H]2CC[C@@](C)(O)CC2)cc1C(F)(F)F [Example 252, (1s,4s)-4-((2-((2-(1-(Cyclopropylsulfonyl)-1H-pyrazol-4-yl)pyrimidin-4-yl)amino)-5-(1-methyl-5-(trifluoromethyl)-1H-pyrazol-3-yl)pyridin-4-yl)amino)-1-methylcyclohexan-1-ol] | 0.7 nM | – | – | 9.8 nM | > 10000 nM | – | 0.8 nM | 1.2 nM | 4.3 nM | 3 nM | – |
| CC(C)(CO)CNc1cc(Nc2ccnc(-c3cnn(S(=O)(=O)C4CC4)c3)n2)ncc1-c1csc(C(C)(C)O)n1 [Example 90, 3-((2-((2-(1-(Cyclopropylsulfonyl)-1H-pyrazol-4-yl)pyrimidin-4-yl)amino)-5-(2-(2-hydroxypropan-2-yl)thiazol-4-yl)pyridin-4-yl)amino)-2,2-dimethylpropan-1-ol] | 2.6 nM | 7.1 nM | 367 nM | 1490 nM | > 10000 nM | – | – | – | – | – | – |
| O=S(=O)(C1CC1)n1cc(-c2nccc(Nc3cc(NC4CCCCC4O)c(-c4ccn(C(F)F)n4)cn3)n2)cn1 (stereo not shown) [Example 28, 2-((2-((2-(1-(Cyclopropylsulfonyl)-1H-pyrazol-4-yl)pyrimidin-4-yl)amino)-5-(1-(difluoromethyl)-1H-pyrazol-3-yl)pyridin-4-yl)amino)cyclohexan-1-ol] | 1.1 nM | 5.5 nM | 62.7 nM | 598 nM | > 10000 nM | 0.9 nM | 0.8 nM | 95.7 nM | 21.8 nM | 241 nM | – |
| O=S(=O)(C1CC1)n1cc(-c2nccc(Nc3cc(NC4CCCC4O)c(-c4ccn(C(F)F)n4)cn3)n2)cn1 (stereo not shown) [Example 29, 2-((2-((2-(1-(Cyclopropylsulfonyl)-1H-pyrazol-4-yl)pyrimidin-4-yl)amino)-5-(1-(difluoromethyl)-1H-pyrazol-3-yl)pyridin-4-yl)amino)cyclopentan-1-ol] | 2.4 nM | 7.7 nM | 77.1 nM | 590 nM | > 10000 nM | 1.1 nM | 1 nM | 89.9 nM | 26.2 nM | 218 nM | – |
| OC1CCN(Nc2cc(Nc3ccnc(-c4cnn(CC(F)F)c4)n3)ncc2-c2ccn(C(F)F)n2)CC1 [Example 162, 1-((2-((2-(1-(2,2-Difluoroethyl)-1H-pyrazol-4-yl)pyrimidin-4-yl)amino)-5-(1-(difluoromethyl)-1H-pyrazol-3-yl)pyridin-4-yl)amino)piperidin-4-ol] | – | – | – | – | – | 0.9 nM | 0.2 nM | 33.4 nM | 275 nM | 271 nM | – |
| C[C@]1(O)CC[C@@H](Nc2nc(Nc3ccnc(-c4cnn(S(=O)(=O)C5CC5)c4)c3)ncc2-c2ccn(CC(F)(F)F)n2)CC1 [Example 360, (1s,4s)-4-((2-((2-(1-(Cyclopropylsulfonyl)-1H-pyrazol-4-yl)pyridin-4-yl)amino)-5-(1-(2,2,2-trifluoroethyl)-1H-pyrazol-3-yl)pyrimidin-4-yl)amino)-1-methylcyclohexan-1-ol] | – | – | – | – | – | – | – | – | – | – | IC50 [1, 11]: 0.5 nM; IC50 [2, 12]: 0.9 nM; IC50 [3, 13]: 9.5 nM; IC50 [4, 14]: 16.7 nM; IC50 [5, 15]: 140 nM |
| O=S(=O)(C1CC1)n1cc(-c2nccc(Nc3cc(OC4CCC(O)C4)c(-c4ccn(C(F)F)n4)cn3)n2)cn1 (stereo not shown) [Example 67, 3-((2-((2-(1-(Cyclopropylsulfonyl)-1H-pyrazol-4-yl)pyrimidin-4-yl)amino)-5-(1-(difluoromethyl)-1H-pyrazol-3-yl)pyridin-4-yl)oxy)cyclopentan-1-ol] | 3.6 nM | 15.7 nM | 111 nM | 596 nM | > 10000 nM | 3.4 nM | 3.8 nM | 111 nM | 23.5 nM | 336 nM | – |
| O=S(=O)(C1CC1)n1cc(-c2nccc(Nc3cc(N[C@H]4C[C@@H](CO)C4)c(-c4ccn(C(F)F)n4)cn3)n2)cn1 [Example 377, ((1s,3s)-3-((2-((2-(1-(Cyclopropylsulfonyl)-1H-pyrazol-4-yl)pyrimidin-4-yl)amino)-5-(1-(difluoromethyl)-1H-pyrazol-3-yl)pyridin-4-yl)amino)cyclobutyl)methanol] | – | – | – | – | – | – | – | – | – | – | IC50 ([1]; IC50 del19/T790M/C797S, 100 μM ATP): 0.4 nM; IC50 [1, 11]: 0.2 nM; IC50 ([2]; IC50 L858R/T790M/C797S, 100 μM ATP): 0.7 nM; IC50 [2, 12]: 0.1 nM; IC50 ([3]; IC50 del19/C797S, 100 μM ATP): 5.8 nM; IC50 [3, 13]: 4.2 nM; IC50 ([4]; IC50 L858R/C797S, 100 μM ATP): 172 nM; IC50 [4, 14]: 5.7 nM; IC50 ([5]; IC50 WT, 100 μM ATP): > 10000 nM; IC50 [5, 15]: 98.8 nM |
| FC(F)Cn1cc(-c2nccc(Nc3cc(N[C@H]4CC[C@@H](F)CC4)c(-c4ccn(C(F)F)n4)cn3)n2)cn1 [Example 161, N^2-(2-(1-(2,2-Difluoroethyl)-1H-pyrazol-4-yl)pyrimidin-4-yl)-5-(1-(difluoromethyl)-1H-pyrazol-3-yl)-N^4-((1s,4s)-4-fluorocyclohexyl)pyridine-2,4-diamine] | – | – | – | – | – | 3.2 nM | 2.4 nM | 276 nM | 60.6 nM | 640 nM | – |
| O=S(=O)(C1CC1)n1cc(-c2nccc(Nc3cc(NC4CCC(F)(F)CC4)c(-c4ccn(C(F)F)n4)cn3)n2)cn1 [Example 215, N^2-(2-(1-(Cyclopropylsulfonyl)-1H-pyrazol-4-yl)pyrimidin-4-yl)-N^4-(4,4-difluorocyclohexyl)-5-(1-(difluoromethyl)-1H-pyrazol-3-yl)pyridine-2,4-diamine] | – | – | – | – | – | 11.9 nM | 8.6 nM | 70.2 nM | 32.5 nM | 434 nM | – |

The next lines start with results.

| IC50 [1, 6] | IC50 [2, 7] | IC50 [3, 8] | IC50 [4, 9] | IC50 [5, 10] | IC50 [1, 16] | IC50 [2, 17] | IC50 [3, 18] | IC50 [4, 19] | IC50 [5, 20] | SMILES | also measured |
| --- | --- | --- | --- | --- | --- | --- | --- | --- | --- | --- | --- |
| – | – | – | – | – | 1.4 nM | 0.7 nM | 13.3 nM | 7.9 nM | 18.8 nM | Cc1nn(CC(F)(F)F)cc1-c1nccc(Nc2cc(N[C@H]3CC[C@@H](CCO)CC3)c(-c3ccn(C(F)F)n3)cn2)n1 [Example 326, 2-((1s,4s)-4-((5-(1-(Difluoromethyl)-1H-pyrazol-3-yl)-2-((2-(3-methyl-1-(2,2,2-trifluoroethyl)-1H-pyrazol-4-yl)pyrimidin-4-yl)amino)pyridin-4-yl)amino)cyclohexyl)ethan-1-ol] | – |
| – | – | – | – | – | 2.8 nM | 2.3 nM | 20.2 nM | 10.4 nM | 74.8 nM | Cc1nn(CC(F)F)c(C)c1-c1nccc(Nc2cc(N[C@H]3CC[C@@](C)(O)CC3)c(-c3ccn(C(F)F)n3)cn2)n1 [Example 321, (1s,4s)-4-((2-((2-(1-(2,2-Difluoroethyl)-3,5-dimethyl-1H-pyrazol-4-yl)pyrimidin-4-yl)amino)-5-(1-(difluoromethyl)-1H-pyrazol-3-yl)pyridin-4-yl)amino)-1-methylcyclohexan-1-ol] | – |
